Results taken from patent US6620839B2, “1,3-disubstituted and 1,3,3-trisubstituted pyrrolidines as histamine-3 receptor ligands and their therapeutic applications” (Abbott Laboratories, priority 2000, dated 2003).

These compounds were tested against T1, histamine-3 receptor (Rattus norvegicus, UniProt Q9QYN8) (assay: Histamine-3 receptor binding, (3H)-N-α-methylhistamine displacement in rat cortical membranes). Details: male Sprague-Dawley rat brain cortical membranes; (3H)-N-α-methylhistamine ~0.6 nM; 30 minutes at 25° C.; Cheng-Prusoff.
T1 construct: from tissue; host or cells: male Sprague-Dawley rat brain cortex membranes
T1 sequence (Q9QYN8 whole entry): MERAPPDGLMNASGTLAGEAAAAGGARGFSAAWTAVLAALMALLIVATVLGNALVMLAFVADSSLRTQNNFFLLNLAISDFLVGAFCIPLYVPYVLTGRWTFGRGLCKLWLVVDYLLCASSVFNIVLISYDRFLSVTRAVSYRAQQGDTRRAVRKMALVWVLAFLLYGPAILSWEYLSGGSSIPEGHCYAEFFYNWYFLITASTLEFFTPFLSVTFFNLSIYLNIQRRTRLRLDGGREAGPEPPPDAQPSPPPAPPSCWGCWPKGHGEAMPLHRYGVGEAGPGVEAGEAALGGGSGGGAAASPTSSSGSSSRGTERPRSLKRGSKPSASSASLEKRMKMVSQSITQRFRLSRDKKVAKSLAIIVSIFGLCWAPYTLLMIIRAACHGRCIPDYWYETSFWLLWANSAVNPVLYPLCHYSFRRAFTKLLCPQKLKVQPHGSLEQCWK
Procedure, shortened: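 Male Sprague-Dawley rat cortical membranes incubated 30 min at 25 °C with compound dilutions and [3H]-N-α-methylhistamine. Nonspecific binding defined with 3 μM thioperamide. Filtration and scintillation counting used; Ki from Hill transformation and Cheng-Prusoff equation.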
With `O=C(c1ccc(OCCCN2CC[C@@H](NS(=O)(=O)c3ccc(Cl)cc3)C2)cc1)C1CC1` [Example 58, 4-chloro-N-((3R)-1-{3-[4-(cyclopropylcarbonyl)phenoxy]propyl}pyrrolidinyl)benzenesulfonamide] the Ki was 3.9 nM. `CC(C)(C)CC(=O)N[C@@H]1CCN(CCCOc2ccc(-c3ccc(C#N)cc3)cc2)C1` [Example 131] showed a Ki of 51 nM. In the case of `CCC(C)(C)OC(=O)N[C@@H]1CCN(CCCOc2ccc(-c3ccc(C#N)cc3)cc2)C1` [Example 134, tert-pentyl (3R)-1-{3-[(4′-cyano[1,1′-biphenyl]-4-yl)oxy]propyl}pyrrolidinylcarbamate], the Ki is reported as 168 nM. `CCCCOc1ccc(S(=O)(=O)N[C@@H]2CCN(CCCOc3ccc(C(=O)C4CC4)cc3)C2)cc1` [Example 85, 4-butoxy-N-((3R)-1-{3-[4-(cyclopropylcarbonyl)phenoxy]propyl}pyrrolidinyl)benzenesulfonamide] gave a Ki of 5.3 nM. Compound `N#Cc1cccc(S(=O)(=O)N[C@@H]2CCN(CCCOc3ccc(-c4ccccn4)cc3)C2)c1` [Example 104, 3-cyano-N-((3R)-1-{3-[4-(2-pyridinyl)phenoxy]propyl}pyrrolidinyl)benzenesulfonamide] has a Ki of 173 nM. `CC(=O)c1ccc(OCCCN2CC[C@@H](NC(=O)c3csc(-c4cccnc4)n3)C2)cc1` [Example 4, N-{(3R)-1-[3-(4-acetylphenoxy)propyl]pyrrolidinyl}-2-(3-pyridinyl)-1,3-thiazole-4-carboxamide] showed a Ki of 55 nM. `CC(=O)N(C)[C@@H]1CCN(CCCOc2ccc(-c3ccc(C#N)cc3)cc2)C1` [Example 111] showed a Ki of 11 nM. `N#Cc1ccc(-c2ccc(OCCCN3CC[C@@H](NS(=O)(=O)c4ccc(C#N)cc4)C3)cc2)cc1` [Example 33, 4-cyano-N-((3R)-1-{3-[(4′-cyano[1,1′-biphenyl]-4-yl)oxy]propyl}pyrrolidinyl)benzenesulfonamide] gave a Ki of 16 nM. Compound `O=C(c1ccc(OCCCN2CC[C@@H](NS(=O)(=O)c3cccs3)C2)cc1)C1CC1` [Example 81, N-((3R)-1-{3-[4-(cyclopropylcarbonyl)phenoxy]propyl}pyrrolidinyl)-2-thiophenesulfonamide] has a Ki of 5 nM. Compound `Cn1cnc(S(=O)(=O)N[C@@H]2CCN(CCCOc3ccc(C(=O)C4CC4)cc3)C2)c1` [Example 80, N-((3R)-1-{3-[4-(cyclopropylcarbonyl)phenoxy]propyl}pyrrolidinyl)-1-methyl-1H-imidazole-4-sulfonamide] has a Ki of 10 nM. For `N#Cc1ccc(-c2ccc(OCCCN3CC[C@@H](NS(=O)(=O)c4ccccc4Cl)C3)cc2)cc1` [Example 30, 2-chloro-N-((3R)-1-{3-[(4′-cyano[1,1′-biphenyl]-4-yl)oxy]propyl}pyrrolidinyl)benzenesulfonamide], the Ki was 10 nM. For `CC(C)c1ccc(S(=O)(=O)N[C@@H]2CCN(CCCOc3ccc(-c4ccc(C#N)cc4)cc3)C2)cc1` [Example 28], the Ki was 16 nM. With `O=C(c1ccc(OCCCN2CC[C@@H](NS(=O)(=O)c3cccc(C(F)(F)F)c3)C2)cc1)C1CC1` [Example 62, N-((3R)-1-{3-[4-(cyclopropylcarbonyl)phenoxy]propyl}pyrrolidinyl)-3-(trifluoromethyl)benzenesulfonamide] the Ki was 6.4 nM. For `CC(=O)c1ccc(OCCCN2CC[C@@H](NS(=O)(=O)c3ccc(Oc4ncc(C(F)(F)F)cc4Cl)cc3)C2)cc1` [Example 79, N-{(3R)-1-[3-(4-acetylphenoxy)propyl]pyrrolidinyl}-4-{[3-chloro-5-(trifluoromethyl)-2-pyridinyl]oxy}benzenesulfonamide], the Ki was 7.9 nM. `COc1ccc(S(=O)(=O)N[C@@H]2CCN(CCCOc3ccc(C(=O)C4CC4)cc3)C2)cc1` [Example 59, N-((3R)-1-{3-[4-(cyclopropylcarbonyl)phenoxy]propyl}pyrrolidinyl)-4-methoxybenzenesulfonamide] was tested, and the Ki was 3 nM. `CC(C)(C)OC(=O)N[C@H]1CCN(CCOc2ccc(-c3ccc(C#N)cc3)cc2)C1` [Example 100, tert-butyl (3S)-1-{2-[(4′-cyano[1,1′-biphenyl]-4-yl)oxy]ethyl}pyrrolidinylcarbamate] gave a Ki of 1630 nM. Work on `Cc1ccc(S(=O)(=O)N[C@@H]2CCN(CCCOc3ccc(C(=O)C4CC4)cc3)C2)cc1Cl` [Example 87, 3-chloro-N-((3R)-1-{3-[4-(cyclopropylcarbonyl)phenoxy]propyl}pyrrolidinyl)-4-methylbenzenesulfonamide] yielded a Ki of 4.9 nM. In the case of `CC(=O)Nc1ccc(S(=O)(=O)N[C@@H]2CCN(CCCOc3ccc(-c4ccc(C#N)cc4)cc3)C2)cc1` [Example 19, N-(4-{[((3R)-1-{3-[(4′-cyano[1,1′-biphenyl]-4-yl)oxy]propyl}pyrrolidinyl)amino]sulfonyl}phenyl)acetamide], the Ki is reported as 3.8 nM. In the case of `Cc1ccccc1S(=O)(=O)N[C@@H]1CCN(CCCOc2ccc(-c3ccc(C#N)cc3)cc2)C1` [Example 25], the Ki is reported as 30 nM. `O=C(c1ccc(OCCCN2CC[C@@H](NS(=O)(=O)c3cccc4cccnc34)C2)cc1)C1CC1` [Example 84, N-((3R)-1-{3-[4-(cyclopropylcarbonyl)phenoxy]propyl}pyrrolidinyl)-8-quinolinesulfonamide] showed a Ki of 9.5 nM. In the case of `CC(C)(C)NC(=O)N[C@@H]1CCN(CCCOc2ccc(-c3ccc(C#N)cc3)cc2)C1` [Example 137, N-(tert-butyl)-N′-((3R)-1-{3-[(4′-cyano[1,1′-biphenyl]-4-yl)oxy]propyl}pyrrolidinyl)urea], the Ki is reported as 196 nM.
